Where two headings read alike, the source gives them in different places.
What was measured:
[1] = molecular target: T. brucei N-myristoyl transferase (Trypanosoma brucei brucei (strain 927/4 GUTat10.1), UniProt Q388H8); assay: biochemical; assay type: biochemical
[2] = test system: Trypanosome (T. brucei brucei); assay: In-vitro antitrypanosomal efficacy assay (cell growth, resazurin); assay type: cell-based
Method: To column 12, 200 μl media was added to provide a no cells control. Plates were then incubated at 37° C. in an atmosphere of 5% CO2 for 69 hours, before the addition of 20 μl of 500 μM rezasurin solution, and a further incubation period of 4 hours. […] Concentration effect curves were fitted using non-linear regression using XLFit 4.2 and EC50 values determined.

[3] = value printed without enzyme tag in the NMT Enzyme column (taken as T. brucei NMT), read-out: IC50 (μM) NMT Enzyme
[4] = T. brucei NMT, value without parentheses, read-out: IC50 (μM) NMT Enzyme (T. brucei NMT)
[5] = T. brucei brucei, blood stream form, variant 221
[6] = value with no enzyme tag in the cell, taken as T. brucei NMT, read-out: IC50 (μM) NMT Enzyme

T. brucei N-myristoyl transferase, sequence (Q388H8 1-446): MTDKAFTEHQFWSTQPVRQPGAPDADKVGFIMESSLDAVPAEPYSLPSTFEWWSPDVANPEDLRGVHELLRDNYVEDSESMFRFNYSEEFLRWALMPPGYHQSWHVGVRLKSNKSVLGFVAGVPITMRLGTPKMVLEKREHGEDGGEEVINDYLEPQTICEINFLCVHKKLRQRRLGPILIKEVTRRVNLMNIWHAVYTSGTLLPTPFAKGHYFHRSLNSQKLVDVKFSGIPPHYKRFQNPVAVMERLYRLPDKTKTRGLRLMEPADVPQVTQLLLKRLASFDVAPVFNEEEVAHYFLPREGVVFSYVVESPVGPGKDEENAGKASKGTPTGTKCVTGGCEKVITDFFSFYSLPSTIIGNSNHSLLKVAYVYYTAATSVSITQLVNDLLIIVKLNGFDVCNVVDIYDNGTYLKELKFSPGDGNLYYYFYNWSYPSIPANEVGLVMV

Row | SMILES | IC50 [1, 3] [µM] | ED50 (μM) T. brucei ([2]; T. brucei cell growth) [µM] | IC50 [1, 4] [µM] | ED50 (μM) T. brucei [2, 5] [µM] | IC50 [1, 6] [µM]
1 | Cc1nn(C)c(C)c1N[S+](=O)([O-])c1c(Cl)cc(-c2cccc3cnccc23)cc1Cl [DDD73278] | 26.9 | >1 |  |  | 
2 | Cc1nn(C)c(C)c1N[S+](=O)([O-])c1c(Cl)cc(C#Cc2cncn2C)cc1Cl [DDD73484] | 0.67 | 3.1 |  |  | 
3 | CCNCc1cccc(-c2ccc([S+](=O)([O-])Nc3c(CC(C)C)nn(C)c3C)cc2)c1 [DDD100095] |  |  | 0.005 | 0.055 | 
4 | Cc1nn(C)c(C)c1N[S+](=O)([O-])c1cccc(Br)c1 [DDD71240] | 8 | >1 |  |  | 
5 | Cc1nn(C)c(C)c1N[S+](=O)([O-])c1ccc2c(c1)OCO2 [DDD71282] | 4 | >1 |  |  | 
6 | Cc1nn(C)c(C)c1N[S+](=O)([O-])c1ccc(CNCCN2CCCCC2)cc1 [DDD85643] |  | >1 |  |  | 8
7 | Cc1nn(C)c(C)c1N[S+](=O)([O-])c1ccc(Nc2ccc(Oc3ccccc3)cc2)nc1 [DDD73483] | > 100 | >1 |  |  | 
8 | Cc1nn(C)c(C)c1N[S+](=O)([O-])c1ccc(-c2cccc(CC3CCN(C)CC3)c2)cc1 [DDD90107] |  | 0.040 |  |  | 0.004
9 | Cc1nn(C)c(C)c1N[S+](=O)([O-])c1ccc(CN2CCNC(=O)C2)cc1 [DDD73225] | > 100 | >1 |  |  | 
10 | Cc1nn(C)c(C)c1NS(=O)(=O)c1c(Cl)cc(-c2ccnc(NCCNc3ccccn3)c2)cc1Cl [DDD86302, 2,6-Dichloro-4-{2-[2-(pyridin-2-ylamino)-ethylamino]pyridin-4-yl}-N-(1,3,5-trimethyl-1 H-pyrazol-4-yl)-benzenesulfonamide] |  | >1 |  |  | 1
11 | Cc1nn(C)c(C)c1N[S+](=O)([O-])c1ccc(NCCCO)nc1 [DDD73222] | 1 | >1 |  |  | 
12 | COc1cc(C)c([S+](=O)([O-])NCc2c(C)nn(C)c2C)c(C)c1C [DDD71296] | > 100 | >1 |  |  | 
13 | Cc1nn(C)c(C)c1N[S+](=O)([O-])c1ccc(-n2cccn2)cc1 [DDD71294] | 4.8 | >1 |  |  | 
14 | Cc1nn(C)c(C)c1N[S+](=O)([O-])c1cccc2cccnc12 [DDD71283] | 7.4 | >1 |  |  | 
15 | Cc1c(N[S+](=O)([O-])c2ccc(CCCOC3CCN(C)CC3)cc2)c(CC(C)C)nn1C [DDD100168] |  |  | 0.009 | 0.110 | 
16 | COc1ccc(SCc2ccc([S+](=O)([O-])Nc3c(C)nn(C)c3C)cc2)cc1 [DDD73231] | 0.76 | 6.7 |  |  | 
17 | Cc1nn(C)c(C)c1N[S+](=O)([O-])c1ccc(CN2CCCc3ccccc32)cc1 [DDD85596] | 41.7 | >1 |  |  | 
18 | Cc1nn(C)c(C)c1N[S+](=O)([O-])c1ccc(CNC2CCc3ccccc32)cc1 (stereo not shown) [DDD85592] | 44 | >1 |  |  | 
19 | Cc1nn(C)c(C)c1N(CCCO)S(=O)(=O)c1c(Cl)cc(Br)cc1Cl [DDD85593, 4-Bromo-2,6-dichloro-N-(3-hydroxy-propyl)-N-(1,3,5-trimethyl-1H-pyrazol-4-yl)-benzenesulfonamide] | 0.36 | 3.5 |  |  | 
20 | Cc1cc(C(C)(C)C)cc(C)c1[S+](=O)([O-])Nc1c(C)nn(C)c1C [DDD71243] | 0.5 | 5.8 |  |  | 
21 | Cc1nn(C)c(C)c1N[S+](=O)([O-])c1ccc(Cn2cnc(-c3ccccc3)c2)cc1 [DDD73503] | 2.5 | 10.5 |  |  | 
22 | COc1cc(C)c([S+](=O)([O-])Nc2onc(C)c2C)c(C)c1C [DDD71284] | > 100 | >1 |  |  | 
23 | Cc1nn(C)c(C)c1N[S+](=O)([O-])c1ccc(NCCCn2ccnc2)nc1 [DDD85633] |  | >50 |  |  | 2
